Consider one compound from patent US7279468B2, “Integrin ligands” (Abbott GmbH & Co. KG, priority 2000, dated 2007).

The assay concerns the target T1, integrin αvβ3 (Homo sapiens, UniProt P05106+P06756).
T1 construct: from tissue; host or cells: human placenta
The assay can be described thus: Integrin αvβ3 assay (competition between vitronectin and test substance for binding to solid phase-bound integrin αvβ3). The settings on record: competition with human vitronectin, integrin αvβ3 from human placenta, comparison in words only. As to the method:
For the identification and assessment of integrin αvβ3 ligands, a test system was used which was based on competition between the natural integrin αvβ3 ligand vitronectin and the test substance for binding to solid phase-bound integrin αvβ3.
• Microtiter plates coated with 250 ng/ml of integrin αvβ3 in 0.05 M NaHCO3 pH 9.2; 0.1 ml/well; • saturation with 1% powdered milk/assay buffer; 0.3 ml/well; 0.5 h/RT • 3× washing with 0.05% Tween 20/assay buffer • test substance in 0.1% powdered milk/assay buffer, 50 μl/well 0 μg/ml or […] of human vitronectin (Boehringer Ingelheim T007) in 0.1% powdered milk/assay buffer, 50 μl/well; 1 h/RT • 3× washing with 0.05% Tween 20/assay buffer • 1 μg/ml of anti human vitronectin antibody coupled to peroxidase (Kordia SAVN-APHRP) in 0.1% powdered milk/assay buffer; 0.1 ml/well; 1 h/RT • 3× washing with 0.05% Tween 20/assay buffer • 0.1 ml/well of peroxidase substrate • stop reaction with 0.1 ml/well of 2 M H2SO4 • measurement of the absorption at 450 nm • Integrin αvβ3: Human placenta is solubilized with Nonidet and integrin αvβ3 affinity-purified on a GRGDSPK matrix (elution with EDTA). […]

Turning to `O=C(O)CC1CCN(CC(=O)NCc2ccc(Nc3nc4ccccc4[nH]3)cc2)C(=O)c2ccccc21` (stereo not shown) [Example II, [2-(2-{[4-(1H-Benzimidazol-2-ylamino)benzyl]amino}-2-oxoethyl)-1-oxo-2,3,4,5-tetrahydro-1H-2-benzazepin-5-yl]acetic acid], the “IC50 values (concentration of the ligand at which 50% of the ligand is displaced)” value is recorded as “best result”.
